Measured values taken from US6262305A, “Process and intermediates for preparing 3-(substituted phenyl)-5-(thienyl or furyl)-1,2,4-triazole compounds” (priority 1999, dated 2001).

Tested on: Cotton Aphid
Experiment: Seed Treatment Test vs. Cotton Aphid on Squash
Assay type: in vivo, Aphis gossypii
Method: Seed Treatment Test vs. Cotton Aphid on Squash
Four-inch pots were filled two-thirds full with sieved soil mix (70 sand/30 pulverized soil). Compound was applied as a suspension to the center in 4 ml volume. Squash seed placed in the applied chemical zone was covered with soil mix 1 cm deep. […] The plants were then infested with aphids. Four days later, aphid counts were made.

Compound | % Ctrl., cotton aphid on Squash - 1st True Leaf (0.8 mg/pot) [%] | Cotton aphid counts on Squash - 1st True Leaf, Mean (0.8 mg/pot) | % Ctrl., cotton aphid on Squash - cotyledon (0.8 mg/pot) [%] | Cotton aphid counts on Squash - cotyledon, Mean (0.8 mg/pot) | % Ctrl., cotton aphid on Squash - 1st True Leaf (3.2 mg/pot) [%] | Cotton aphid counts on Squash - 1st True Leaf, Mean (3.2 mg/pot) | % Ctrl., cotton aphid on Squash - cotyledon (3.2 mg/pot) [%] | Cotton aphid counts on Squash - cotyledon, Mean (3.2 mg/pot) | % Ctrl., cotton aphid on Squash - 1st True Leaf (12.8 mg/pot) [%] | Cotton aphid counts on Squash - 1st True Leaf, Mean (12.8 mg/pot) | % Ctrl., cotton aphid on Squash - cotyledon (12.8 mg/pot) [%] | Cotton aphid counts on Squash - cotyledon, Mean (12.8 mg/pot) | % Ctrl., cotton aphid on Squash - 1st True Leaf (0.05 mg/pot) [%] | Cotton aphid counts on Squash - 1st True Leaf, Mean (0.05 mg/pot) | % Ctrl., cotton aphid on Squash - cotyledon (0.05 mg/pot) [%] | Cotton aphid counts on Squash - cotyledon, Mean (0.05 mg/pot) | % Ctrl., cotton aphid on Squash - 1st True Leaf (0.2 mg/pot) [%] | Cotton aphid counts on Squash - 1st True Leaf, Mean (0.2 mg/pot) | % Ctrl., cotton aphid on Squash - cotyledon (0.2 mg/pot) [%] | Cotton aphid counts on Squash - cotyledon, Mean (0.2 mg/pot)
Cn1nc(-c2c(F)cccc2Cl)nc1-c1sc(Cl)c(Cl)c1Cl [Compound 2, 3-(2-chloro-6-fluorophenyl)-5-(3,4,5-trichlorothien-2-yl)-1-methyl[1,2,4]triazole] | 85.8 | 12.0 | 54.4 | 48.0 | 95.9 | 3.5 | 93.1 | 7.3 | 96.1 | 3.3 | 93.3 | 7.0 | – | – | – | – | – | – | – | –
O=[N+]([O-])NC1=NCCN1Cc1ccc(Cl)nc1 [Imidacloprid, reference compound] | 100.0 | 0.0 | 100 | 0 | – | – | – | – | – | – | – | – | 58.5 | 35.0 | 97.6 | 2.5 | 88.4 | 9.8 | 100 | 0
Cn1nc(-c2c(Cl)cccc2Cl)nc1-c1sc(Cl)c(Cl)c1Cl [Compound 45, 3-(2,6-dichlorophenyl)-5-(3,4,5-trichlorothien-2-yl)-1-methyl[1,2,4]triazole] | 51.7 | 40.8 | 0 | 165.5 | 77.8 | 18.8 | 52.3 | 50.3 | 90.2 | 8.3 | 24.0 | 80.0 | – | – | – | – | – | – | – | –
